row,logP,SMILES
1,3.13,CCCCCc1ccc(O)c(O)c1
2,6.84,CCCCCCCCCCCCCc1ccc(O)cc1O
3,4.45,CCCCCCCc1ccccc1O
4,5.54,CCCCCCCCCc1ccc(O)c(O)c1
5,8.42,CCCCCCCCCCCCCc1ccc(O)c(O)c1
6,5.43,CCCCCCCCCCCc1ccc(O)cc1O
7,4.86,CCCCCCCCCc1cccc(O)c1O
8,9.9,CCCCCCCCCCCCCCCc1ccc(O)c(O)c1
9,6.98,CCCCCCCCCCCc1cccc(O)c1
10,8.29,CCCCCCCCCCCCCCCc1ccc(O)cc1O
11,3.13,CCCCCc1cccc(O)c1
12,10.1,CCCCCCCCCCCCCCCc1cccc(O)c1
13,6.3,CCCCCCCCCCCc1cccc(O)c1O
14,2.9,CCCCCCCc1ccc(O)cc1O
15,7.17,CCCCCCCCCCCc1ccccc1O
16,8.61,CCCCCCCCCCCCCc1ccccc1O
17,6.94,CCCCCCCCCCCc1ccc(O)c(O)c1
18,8.2,CCCCCCCCCCCCCc1ccc(O)cc1
19,8.84,CCCCCCCCCCCCCc1cccc(O)c1
20,5.61,CCCCCCCCCc1cccc(O)c1
21,4.1,CCCCCCCCCc1ccc(O)cc1O
22,3.59,CCCCCCCc1cccc(O)c1O
23,10.1,CCCCCCCCCCCCCCCc1ccccc1O
24,7.18,CCCCCCCCCCCc1ccc(O)cc1
25,7.75,CCCCCCCCCCCCCc1cccc(O)c1O

row,SMILES,logP
1,CCCCCCCc1ccc(O)cc1,4.15
2,CCCCCCCCCc1ccc(O)cc1,5.76
3,CCCCCCCCCCCCc1ccc(O)cc1,7.91
4,CCCCCCCCCc1ccccc1O,5.76
5,CCCCCCCCCCCCCCCc1cccc(O)c1O,9.27

# Reference: the SangsterLogP compilation
